Our source for the IC50 and inhibition values is patent US8143278B2, “Organic compounds” (Novartis AG, priority 2006, dated 2012).

The target in one assay is T1, aldosterone synthase (Homo sapiens, UniProt P19099).
T1 construct: host or cells: NCI-H295R human adrenocortical carcinoma cells
T1 sequence (P19099 25-503): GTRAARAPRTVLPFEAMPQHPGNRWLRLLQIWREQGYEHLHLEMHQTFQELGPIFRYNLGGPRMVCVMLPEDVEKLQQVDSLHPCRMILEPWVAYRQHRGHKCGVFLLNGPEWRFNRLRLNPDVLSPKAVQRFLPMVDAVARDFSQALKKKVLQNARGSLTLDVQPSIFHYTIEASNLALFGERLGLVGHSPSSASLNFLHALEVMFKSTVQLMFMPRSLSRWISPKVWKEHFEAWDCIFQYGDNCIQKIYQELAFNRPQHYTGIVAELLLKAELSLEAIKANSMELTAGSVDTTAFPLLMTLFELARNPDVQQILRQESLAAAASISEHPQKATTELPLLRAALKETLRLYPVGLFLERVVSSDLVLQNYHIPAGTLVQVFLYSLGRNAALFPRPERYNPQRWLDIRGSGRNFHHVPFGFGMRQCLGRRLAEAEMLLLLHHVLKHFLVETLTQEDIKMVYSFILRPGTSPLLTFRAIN
The assay can be described thus: in vitro aldosterone synthase inhibition (ASI cell), aldosterone production in NCI-H295R cells. Format: cell-based. The conditions noted are these: 1 μM Ang II, 24 hr. From the text: Human adrenocortical carcinoma NCI-H295R cell line is obtained from American Type Culture Collection (Manassas, Va.). Insulin/transferrin/selenium (ITS)-A supplement (100×), DMEM/F-12, antibiotic/antimycotic (100×), and fetal calf serum (FCS) are purchased from Gibco (Grand Island, N.Y.). Anti-mouse PVT scintillation proximity assay (SPA) beads and NBS 96-well plates are obtained from Amersham (Piscataway, N.J.) and Corning (Acton, Mass.), respectively. Solid black 96-well flat bottom plates are purchased from Costar (Corning, N.Y.). Aldosterone and angiotensin (Ang II) are purchased from Sigma (St. Louis, Mo.). D[1,2,6,7-^3H(N)]aldosterone was acquired from PerkinElmer (Boston, Mass.). Nu-serum was a product of BD Biosciences (Franklin Lakes, N.J.). The NADPH regenerating system, dibenzylfluorescein (DBF), and human aromatase Supersomes® are obtained from Gentest (Woburn, Mass.).
For in vitro measurement of aldosterone activity, human adrenocortical carcinoma NCI-H295R cells are seeded in NBS 96-well plates at a density of 25,000 cells/well in 100 μl of a growth medium containing DMEM/F12 supplemented with 10% FCS, 2.5% Nu-serum, 1 μg ITS/ml, and 1× antibiotic/antimycotic. The medium is changed after culturing for 3 days at 37° C. under an atmosphere of 5% CO2/95% air. On the following day, cells are rinsed with 100 μl of DMEM/F12 and incubated with 100 μl of treatment medium containing 1 μM Ang II and a compound at different concentrations in quadruplicate wells at 37° C. for 24 hr. At the end of incubation, 50 μl of medium is withdrawn from each well for measurement of aldosterone production by an RIA using mouse anti-aldosterone monoclonal antibodies.
Measurement of aldosterone activity can also be performed using a 96-well plate format. Each test sample is incubated with 0.02 μCi of D-[1,2,6,7-^3H(N)]aldosterone and 0.3 μg of anti-aldosterone antibody in phosphate-buffered saline (PBS) containing 0.1% Triton X-100, 0.1% bovine serum albumin, and 12%, glycerol in a total volume of 200 μl at room temperature for 1 hr. Anti-mouse PVT SPA beads (50 μl) are then added to each well and incubated overnight at room temperature prior to counting in a Microbeta plate counter. The amount of aldosterone in each sample is calculated by comparing with a standard curve generated using known quantities of the hormone.
Full concentration-response curves of the test compound are performed at least 3 times. The IC50 values are derived using a non-linear least squares curve-fitting program from Microsoft XLfit.

In another assay the target is T2, CYP11B1 (Homo sapiens, UniProt P15538).
T2 construct: Thus, the NCI-H295R cells have CYP11B1 (steroid 11 p-hydroxylase); host or cells: NCI-H295R human adrenocortical carcinoma cells
T2 sequence (P15538 25-503): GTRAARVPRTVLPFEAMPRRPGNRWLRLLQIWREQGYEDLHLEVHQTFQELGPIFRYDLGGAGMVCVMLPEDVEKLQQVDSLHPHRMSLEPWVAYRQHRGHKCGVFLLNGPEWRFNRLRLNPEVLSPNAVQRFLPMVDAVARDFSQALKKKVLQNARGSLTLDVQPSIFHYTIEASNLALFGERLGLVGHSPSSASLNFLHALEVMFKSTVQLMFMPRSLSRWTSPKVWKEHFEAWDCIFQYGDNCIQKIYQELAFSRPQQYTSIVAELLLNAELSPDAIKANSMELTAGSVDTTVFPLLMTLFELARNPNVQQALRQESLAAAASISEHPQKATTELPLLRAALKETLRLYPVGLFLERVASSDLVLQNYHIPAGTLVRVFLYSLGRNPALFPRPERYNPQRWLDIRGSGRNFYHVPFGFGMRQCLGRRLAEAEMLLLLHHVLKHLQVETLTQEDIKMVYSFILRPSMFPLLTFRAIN
Briefly: in vitro CYP11B1 inhibition in NCI-H295R cells. Format: cell-based. The conditions noted are these: read-out: % inhibition CYP11B1 @ 10 nM. From the text:
The cell line NCI-H295R was originally isolated from an adrenocortical carcinoma and has been characterized in the literature through the stimulable secretion of steroid hormones and the presence of the enzymes essential for steroidogenesis. Thus, the NCI-H295R cells have CYP11B1 (steroid 11 p-hydroxylase). The cells show the physiological property of zonally undifferentiated human foetal adrenocortical cells which, however, have the capacity to produce the steroid hormones which are formed in the three, phenotypically distinguishable zones in the adult adrenal cortex. […]
The excretion of aldosterone, cortisol, corticosterone and estradiol/estrone into the culture medium can be detected and quantified by commercially available, specific monoclonal antibodies in radioimmunoassays in accordance with the manufacturer's instructions.
Inhibition of the release of certain steroids can be used as a measure of the respective enzyme inhibition by the added test compounds. The dose-dependent inhibition of enzymic activity by a compound is calculated by means of an inhibition plot which is characterized by an IC50. […]

Consider `COc1ccc2c(c1)NC(=O)C(C)(C)C2n1ccnc1` (racemic) [Compound 6, 7-methoxy-4-Imidazol-1-yl-3,3-dimethyl-3,4-dihydro-1H-quinolin-2-one], for which the IC50 (usually the concentration needed to halve the response being measured) against aldosterone synthase stood at 0.034 µM. The inhibition (in general, the relative decrease from the control value, in per cent) at 0.01 µM at CYP11B1 was 84%. In the case of `Cc1cncn1C1c2ccc(F)cc2NC(=O)C1(C)C` (racemic) [Compound 9, 7-Fluoro-3,3-dimethyl-4-(5-methyl-imidazol-1-yl)-3,4-dihydro-1H-quinolin-2-one], the IC50 against aldosterone synthase turned out to be 0.012 µM.

`Cc1noc(-c2cncn2C2c3ccccc3NC(=O)C2(C)C)n1` (racemic) [Compound 10, 3,3-Dimethyl-4-[5-(3-methyl-[1,2,4]oxadiazol-5-yl)-imidazol-1-yl]-3,4-dihydro-1H-quinolin-2-one]: on aldosterone synthase, the IC50 came to 0.137 µM. Same read-out and setting: as for `CC1(C)C(=O)Nc2cccc(Cl)c2C1n1cncc1CO` (racemic) [Compound 8, 5-Chloro-4-(5-hydroxymethyl-imidazol-1-yl)-3,3-dimethyl-3,4-dihydro-1H-quinolin-2-one], the figure is 0.007 µM.

Turning to `CN1C(=O)C(C)(C)C(n2ccnc2)c2ccccc21` (racemic) [Compound 7, 4-Imidazol-1-yl-1,3,3-trimethyl-3,4-dihydro-1H-quinolin-2-one], at aldosterone synthase, the IC50 was determined as 0.01 µM. Further, the inhibition at 0.01 µM on CYP11B1 turned out to be 100%.
